# PubChem BioAssay (NCI)
#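 Method: 48-hour compound exposure of cells in 96-well plates, five concentrations, linear interpolation of endpoints. At the GI50, growth is halved. TGI: total growth inhibition.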
# How the values were obtained:
# Test in all cases: growth of human tumour cells (NCI), 48 h
# HS 578T breast = test system: HS 578T breast
# ACHN renal = test system: ACHN renal
# SNB-19 CNS = test system: SNB-19 CNS
# NCI-H226 lung = test system: NCI-H226 lung
# UO-31 renal = test system: UO-31 renal
# RXF 393 renal = test system: RXF 393 renal
# M14 melanoma = test system: M14 melanoma
# T-47D breast = test system: T-47D breast
# HOP-62 NSCLC = test system: HOP-62 NSCLC
# MALME-3M melanoma = test system: MALME-3M melanoma
Structure (SMILES),TGI (HS 578T breast) [µM],TGI (ACHN renal) [µM],TGI (SNB-19 CNS) [µM],TGI (NCI-H226 lung) [µM],TGI (UO-31 renal) [µM],TGI (RXF 393 renal) [µM],TGI (M14 melanoma) [µM],TGI (T-47D breast) [µM],TGI (HOP-62 NSCLC) [µM],TGI (MALME-3M melanoma) [µM],GI50 (ACHN renal) [µM],GI50 (SNB-19 CNS) [µM],GI50 (UO-31 renal) [µM],GI50 (M14 melanoma) [µM]
O=c1[nH]c2cc(C(F)(F)F)ccc2nc1Cc1ccccc1,> 100,> 100,> 100,> 100,> 100,85.8,> 100,> 100,95.9,,,,,
CC(=O)Oc1ccc(N2C(=O)C3c4[nH]c5ccccc5c4C4CCC(C(C)(C)C)CC4C3C2=O)cc1 (stereo unspecified),8.82,12.2,9.84,26.1,17.7,5.64,13.2,,13.5,19.4,,,,
CC(=O)N1c2ccccc2C(C)(C)OC1C(Cl)(Cl)Cl (stereo unspecified),> 100,> 100,> 100,> 100,> 100,,> 100,> 100,> 100,> 100,,,,
Cc1cccc(/C=N/NC(=S)NCc2ccccn2)n1,> 100,67.5,> 100,> 100,60,,42.6,> 100,> 78.6,> 100,,,,
CC(=O)OCCC1c2ccccc2-n2nc(-c3ccccc3)c(O)c21 (stereo unspecified),54.9,45.1,32.2,64.4,30.8,26,28.6,,30.1,,,,,
Cc1cc(C)c(S(=O)(=O)N[C@@H](/C=C(\Br)CO)C(C)C)c(C)c1,54.5,> 100,> 100,,> 100,63.3,91.3,68.4,> 100,61.6,,,,
O=C1NCC2(CCNCC2)N1c1ccccc1,> 100,> 100,> 100,> 100,,> 100,> 100,> 100,> 100,> 100,,,,
Cc1ccc(/C=C2\CN(C)CC3C(c4ccc(C)cc4)=C(C#N)C(=O)NC23)cc1 (stereo unspecified),> 50,> 50,> 50,> 50,,> 50,> 50,> 50,> 50,> 50,,,,
CC(=O)Oc1ccccc1[C@H]1CC(=O)C[C@H](c2ccccc2OC(C)=O)C12C(=O)c1ccccc1C2=O,> 100,,> 100,74,> 100,93.4,70.9,> 100,> 100,> 100,,,,
COC(=O)[C@@H]1C=C[C@@H](C#N)n2c(=O)n(-c3ccccc3)c(=O)n21,> 100,> 100,> 100,40.4,> 100,,> 100,94.1,56.2,,,,,
CCOc1ccc(N2C(=O)C3c4[nH]c5ccccc5c4C4CCC(C(C)(C)C)CC4C3C2=O)cc1 (stereo unspecified),,> 100,> 100,> 100,> 100,71,> 100,,> 100,> 100,,,,
CC(C)C1CC=NN1C(=O)OC(C)(C)C (stereo unspecified),> 100,> 100,,> 100,> 100,> 100,> 100,> 100,> 100,,,,,
NS(=O)(=O)c1ccc(NC(=O)c2cc([N+](=O)[O-])cc([N+](=O)[O-])c2)cc1,> 100,,> 100,> 100,> 100,> 100,> 100,85.8,> 100,57.2,,,,
O=C(O)CCC(NC(=O)c1ccc(Nc2nc3ccccc3nc2C(=O)O)cc1)C(=O)O (stereo unspecified),> 100,> 100,> 100,,> 100,,> 100,> 100,> 100,> 100,,,,
Cc1nc(-c2ccccc2)c(C)n2c1nc1ccccc12,> 100,,> 100,> 100,79.1,88.9,46,45.3,> 100,> 100,,,,
Cc1c(C(=O)CSc2nc3ccc([N+](=O)[O-])cc3[nH]2)c(=O)n(-c2ccccc2)n1C,,> 100,> 100,> 100,> 100,,> 100,,> 100,> 100,,,,
CC(=O)OCC1OC(Nc2ccc3nc(C)n(-c4cccc(C)c4)c(=O)c3c2)C(OC(C)=O)C(OC(C)=O)C1OC(C)=O (stereo unspecified),> 62.5,> 62.5,> 62.5,> 62.5,> 62.5,> 62.5,,> 62.5,> 62.5,> 62.5,,,,
Oc1c(C2=NNC(c3cccs3)C2)ccc2ccccc12 (stereo unspecified),74.5,> 100,,> 100,> 100,> 100,32.5,> 100,99.4,> 100,,,,
COC(=O)c1ccc2c(c1)CC1(C2)Cc2cc3c(c(C(=O)OC)c2C1)CCCC3 (stereo unspecified),> 100,> 100,,> 100,> 100,> 100,,> 100,> 100,> 100,,,,
COc1cc(C2CC(c3cccc(Nc4ccncc4)c3)=NN2c2cc(Cl)cc(Cl)c2)cc(OC)c1OC (stereo unspecified),,3.03,3.02,,2.79,,3.36,,,,1.66,1.61,1.44,1.75
CC(O)c1c2c(cc3c1CC1(C3)Cc3cc4c(c(C(C)O)c3C1)CCC4)CCC2 (stereo unspecified),52.8,31.4,,34,3.26,30,35.2,53.7,38.8,34.5,,,,
O=C1C(C(O)(C(F)(F)Cl)C(F)(F)Cl)CCC1C(O)(C(F)(F)Cl)C(F)(F)Cl (stereo unspecified),5.44,> 10,> 10,9.46,,> 10,> 10,> 10,> 10,> 10,,,,
CCOC(=O)N1CCN(Cc2cc(=O)n3cc(C)ccc3n2)CC1,> 100,> 100,> 100,> 100,> 100,,> 100,,> 100,> 100,,,,
Cc1ccc(S(=O)(=O)NC(=O)NC(CO)C(=O)O)cc1 (stereo unspecified),> 100,> 100,> 100,,> 100,> 100,> 100,> 100,> 100,> 100,,,,
